Assay results as given in ChEMBL document CHEMBL1137086, “Identification of compounds with nanomolar binding affinity for checkpoint kinase-1 using knowledge-based virtual screening” (J Med Chem, 2004).

Target: T1, Serine/threonine-protein kinase Chk1 (Homo sapiens, UniProt O14757)
T1 sequence (O14757 whole entry): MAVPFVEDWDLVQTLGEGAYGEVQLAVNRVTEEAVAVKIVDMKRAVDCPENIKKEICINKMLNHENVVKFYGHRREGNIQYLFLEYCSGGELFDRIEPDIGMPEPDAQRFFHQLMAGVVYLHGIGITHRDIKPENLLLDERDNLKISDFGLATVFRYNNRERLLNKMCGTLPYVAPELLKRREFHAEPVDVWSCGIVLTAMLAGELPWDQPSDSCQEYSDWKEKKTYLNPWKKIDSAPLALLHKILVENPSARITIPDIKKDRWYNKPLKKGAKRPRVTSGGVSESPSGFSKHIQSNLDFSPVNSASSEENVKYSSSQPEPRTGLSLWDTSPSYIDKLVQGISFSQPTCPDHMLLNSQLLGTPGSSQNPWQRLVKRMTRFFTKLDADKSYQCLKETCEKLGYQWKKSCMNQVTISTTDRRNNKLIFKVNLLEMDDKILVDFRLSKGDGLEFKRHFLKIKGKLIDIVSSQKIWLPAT
Test: Inhibition of checkpoint kinase-1

Row | IC50 [nM] | SMILES
1 | 450 | COc1ccc(Nc2nc(Nc3ccc(C(=O)O)cc3)ncc2Br)cc1
2 | 4000 | N#Cc1ccc2c(c1)NC(=O)C2c1ncnc2cc(OCCCN3CCOCC3)ccc12 (configuration not stated)
